Source: PubChem BioAssay AID463206 (Broad Institute, 2010)
Calls of active or inactive are those of the source.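 Rule for the calls: active = caspase luminescence falls with dose and the half-maximal concentration AC50 from the fitted curve is at or below a set limit; inconclusive = flat fit at 30 to 70% signal loss, or invalid fit; inactive = AC50 above the limit, or signal rises instead.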

Tested on: INS-1E cytokine-induced caspase-3/7, Caspase-Glo luminescence, 48 h
Assay: suppression of cytokine-driven beta-cell apoptosis – INS-1E rat cells, luminescence, orthogonal assay for beta-cell apoptosis protection project, dose response (AID 463206)

Structure (SMILES) | AC50
COc1ccc(C(=O)C/C(=C\C(=O)c2ccc(C)cc2)c2ccccc2)cc1 | > 26 µM (inactive)
C(#Cc1ccccc1)C[N+]1(CC#Cc2cccc3ccccc23)CCCC1 | > 26 µM (inactive)
CCCOc1ccc(/C=N/Nc2cc(N3CCOCC3)ncn2)c(O)c1 | > 26 µM (inactive)
COc1cc(N/N=C/c2ccccc2O)ncn1 | > 26 µM (inactive)
Cc1ccc(NC(=O)c2c(-c3c(F)cccc3Cl)noc2C)cc1F | > 12 µM (inactive)
COc1cnc(-c2ccccn2)nc1Sc1ccccc1Cl | > 26 µM (inactive)
O=C(C[C@@H]1C/C=C/CC[C@H](Cc2ccc(F)cc2)C(=O)OC[C@@H](Cc2ccccc2)NC1=O)N[C@H](CO)Cc1ccccc1 | > 26 µM (inactive)
COc1cc(CNCCO)cc(Cl)c1OCc1ccc(Cl)cc1Cl | > 26 µM (inactive)
Oc1c(Br)cc(Br)cc1/C=N/NC(=S)N[C@H]1CC2C=CC1C2 (some centres undefined) | > 26 µM (inactive)
C1=C(CCNc2ncnc3c2[nH]c2ccccc23)CCCC1 | > 26 µM (inactive)
Oc1ccccc1/C=N/Nc1nccnc1Cl | > 26 µM (inactive)
Cc1ccc2c(c1)c(/C=C/c1cc[n+](C)cc1)c(C)n2C | > 26 µM (inactive)
CN(Cc1ccccc1)C(=O)c1nc2ccccn2c1CN1CCCC1c1nccs1 (centres undefined) | > 26 µM (inactive)
CCOc1ccccc1NC(=O)C(=O)N/N=C/c1cc(Br)ccc1O | > 26 µM (inactive)
COCCNc1nc2c(c(=O)n(C)c(=O)n2C)n1Cc1cccc(C(F)(F)F)c1 | > 26 µM (inactive)
CCc1ccc(S(=O)(=O)/N=C2\C=C(Nc3ccc(O)cc3)C(=O)c3ccccc32)cc1 | > 26 µM (inactive)
CCN(CC)c1ccc(CNc2nc3ccccc3n2CCN2CCCCC2)cc1 | > 26 µM (inactive)
CC(Oc1cccc(Cl)c1)C(=O)Nc1cc(S(=O)(=O)N2CCOCC2)ccc1N1CCCCC1 (centres undefined) | > 26 µM (inactive)
CN(C)S(=O)(=O)c1ccc(Oc2ccc(S(=O)(=O)N(C)C)cc2)cc1 | > 26 µM (inactive)
O=C1N/C(=N/N=C/c2ccccc2O)SC1Cc1ccc(F)cc1 (centres undefined) | > 26 µM (inactive)
COc1ccc([N+](=O)[O-])c(S(=O)(=O)c2ccccc2)n1 | > 26 µM (inactive)
COc1ccc(OC)c(NC(=O)CSc2ncnc3c2cnn3-c2ccccc2Cl)c1 | > 26 µM (inactive)
CCN(C1CCCCC1)S(=O)(=O)c1ccc(S(=O)(=O)NCc2ccncc2)cc1 | > 26 µM (inactive)
COc1ccc(-c2sc3ccccc3c2-c2ccc(OCCN(C)C)cc2)cc1 | > 12 µM (inactive)

Structure (SMILES) | AC50
CCCC(=O)NC(c1ccc(Cl)cc1Cl)c1ccc2cccnc2c1O (centres undefined) | > 12 µM (inactive)
CN1/C(=C\C=C2/SC(=S)NC2=O)C(C)(C)c2ccccc21 | > 26 µM (inactive)
Cc1[nH]n(-c2ccccc2)c(=O)c1/C=N/NC(=O)c1cccc(F)c1 | > 26 µM (inactive)
N=c1ccn(CC(=O)c2ccc(-c3ccccc3)cc2)cc1 | > 26 µM (inactive)
C=CC[n+]1c(/C=C2\C=Cc3cc(C)ccc3N2CC)ccc2ccccc21 | > 26 µM (inactive)
Oc1ccc(CN2CCc3ccccc3C2)c2cccnc12 | > 26 µM (inactive)
CC(C)(C)c1cc(C(=O)N/N=C/c2ccccc2O)n(-c2ccccc2)n1 | > 26 µM (inactive)
Cc1sc2ncnc(NCC(O)c3ccccc3)c2c1C (centres undefined) | 23.5 µM
Cc1nc(C)c(-c2csc(NCCc3ccccc3)n2)s1 | > 26 µM (inactive)
O=C(N/N=C/c1cc(Br)ccc1O)C(=O)Nc1ccccc1OC(F)(F)C(F)F | > 26 µM (inactive)
CC1=C(CC(=O)c2ccc(Cl)cc2)C(=O)c2ccccc2C1=O | > 26 µM (inactive)
CCOC(=O)c1cnc2ccc(OCC)cc2c1N1CCN(c2ccccc2)CC1 | > 12 µM (inactive)
CCCCCCSc1cc(-c2nc3ccc(C)cn3c2NCc2ccccc2)ccc1OC | > 26 µM (inactive)
O=C(Nc1cccc(C(F)(F)F)c1)Oc1ccc(Cl)c2cccnc12 | > 26 µM (inactive)
C#CCOCCOCCOCCNc1nc(N2CCN(C(=O)CCCCCCCCCCNC(=O)[C@H]([C@@H](C)CC)n3cc(CCCCN=C(N)N)nn3)CC2)nc(N2CCN(C(=O)CCCCCCCCCCNC(=O)[C@H](CCCCN)n3cc(C)nn3)CC2)n1 | > 26 µM (inactive)
COc1ccc(C(=O)NC(=S)NNC(=O)c2cnccn2)cc1OC | > 26 µM (inactive)
CCOC(=O)N1CCN(c2ncnc3c2[nH]c2ccc(F)cc23)CC1 | > 26 µM (inactive)
Cc1ccc(S(=O)(=O)Nc2ccc(C(OC(=O)c3ccccc3[N+](=O)[O-])(C(F)(F)F)C(F)(F)F)cc2)cc1 | > 26 µM (inactive)
Cc1cccc(NC(=O)Cn2c(/C=C/c3ccccc3)nc3ccccc32)c1 | > 26 µM (inactive)
Cc1ccc2ccc3cccnc3c2n1 | > 26 µM (inactive)
COc1ccc2[nH]c(C(=O)N/N=C/c3ccc(O)cc3O)cc2c1 | > 26 µM (inactive)
N#CC1=C(N)Oc2c(ccc3cccnc23)C1c1cccnc1 (centres undefined) | > 26 µM (inactive)
CC#CC[N+](C)(C)CCCCCCCCCCCC | > 26 µM (inactive)
C/C(=N\NC(=O)c1cc(Br)ccc1O)c1ccccn1 | > 26 µM (inactive)

Structure (SMILES) | AC50
O=C(NCc1cccnc1)c1ccc(-c2cc3ccccc3oc2=O)cc1 | > 26 µM (inactive)
CCOc1ccc(S(=O)(=O)N(C(=O)c2ccco2)c2cc3sc(=O)oc3c3ccccc23)cc1 | > 26 µM (inactive)
CC[C@@H](C(=O)[C@@H](C)[C@@H](O)[C@H](C)CCc1ccc(C)c(O)c1C(=O)O)[C@H]1O[C@](CC)([C@H]2CC[C@](O)(CC)[C@H](C)O2)C[C@@H]1C | > 12 µM (inactive)
Cc1ccccc1C(=O)Nc1cccc(C(=O)N/N=C/c2cc(Cl)cc([N+](=O)[O-])c2O)c1 | > 26 µM (inactive)
C/C(=N\Nc1nc(C)cc(-c2ccccc2)n1)c1ccc(O)cc1 | > 26 µM (inactive)
C[C@H]1CCC/C=C/[C@@H]2C[C@H](O)C[C@H]2[C@H](O)/C=C/C(=O)O1 | > 26 µM (inactive)
O=C1C=C(c2cccs2)C[C@H](c2ccccc2)[C@H]1n1nnc([N+](=O)[O-])n1 | > 26 µM (inactive)
[O-]c1ccccc1-[n+]1c(-c2ccccc2)cc(-c2ccccc2)cc1-c1ccccc1 | > 26 µM (inactive)
CCOC(=O)c1cnc(-n2nc(C)cc2C)nc1NC1CCCC1 | > 26 µM (inactive)
CC(=O)NC(c1cc(Cl)c2cccnc2c1O)C(C)C (centres undefined) | > 26 µM (inactive)
O=C(Nc1cccc(S(=O)(=O)Nc2ccc(Cl)cc2)c1)c1ccc(Cl)nc1 | > 26 µM (inactive)
O=C(Nc1ccc([N+](=O)[O-])cc1)Nc1nc(-c2ccc(Cl)s2)cs1 | > 26 µM (inactive)
COc1ccc2cc(C(=O)N/N=C/c3sc4ccccc4c3O)ccc2c1 | > 26 µM (inactive)
Cc1cc(-c2ccccc2)cc(C)[n+]1Cc1ccccc1 | > 26 µM (inactive)
CN1c2ccccc2N(C)C1(C)c1ccccc1 | > 26 µM (inactive)
CCC(=O)NC(c1ccc(Cl)cc1Cl)c1ccc2cccnc2c1O (centres undefined) | > 12 µM (inactive)
C/C(=N\Nc1nc(C)cc(-c2ccccc2)n1)c1ccccc1 | > 26 µM (inactive)
CN1CCN(C2=C(NS(=O)(=O)c3cccs3)C(=O)c3ccccc3C2=O)CC1 | > 26 µM (inactive)
Cc1ccc(-c2c[n+](Cc3ccc(Cl)c(Cl)c3)c3n2CCC3)cc1 | > 26 µM (inactive)
CCOc1cccc(/C=N/Nc2ccc(S(=O)(=O)N(CC)CC)cn2)c1O | > 26 µM (inactive)
O=C(Nc1nc(-c2ccccn2)cs1)c1ccc([N+](=O)[O-])o1 | > 26 µM (inactive)
O=C(Nc1ccc(C(=O)Nc2ccccc2Cl)cc1)c1cccnc1 | > 26 µM (inactive)
COc1ccc(-c2cc(-c3ccccc3)[n+](C)c(-c3ccccc3)c2)cc1 | > 26 µM (inactive)
Cc1oc2c(c1C(=O)c1ccccc1)C(=O)C(=O)c1ccccc1-2 | > 26 µM (inactive)

Structure (SMILES) | AC50
CCn1c(Cl)c(C=O)s/c1=N\S(=O)(=O)c1ccccc1 | > 26 µM (inactive)
Cc1ccccc1OCCCCn1cnc2ccccc21 | > 12 µM (inactive)
COc1ccc(/C=C/C(=O)c2ccc([N+](=O)[O-])o2)cc1 | > 26 µM (inactive)
C[C@H](CO)N1C[C@H](C)[C@@H](CN(C)C(=O)NC2CCCCC2)Oc2c(NC(=O)Nc3ccc(C(F)(F)F)cc3)cccc2C1=O | > 26 µM (inactive)
CC(=O)c1c(C)[nH]c(C(=O)OCCCCN2C(=O)c3ccccc3C2=O)c1C | > 26 µM (inactive)
O=[N+]([O-])c1ccccc1-c1cc(-c2ccccc2)cc(-c2ccccc2)[n+]1Cc1ccccc1Cl | > 26 µM (inactive)
Cc1cc(C)c2nc(NNC(=O)c3ccc(S(=O)(=O)N4CCCC(C)C4)cc3)sc2c1 (centres undefined) | > 26 µM (inactive)
Cc1csc2c(N3CCN(C(=O)c4ccc(C(C)(C)C)cc4)CC3)ncnc12 | > 26 µM (inactive)
COc1ccc(C2NCCc3c2[nH]c2ccccc32)cc1COc1ccc(F)cc1 (centres undefined) | > 26 µM (inactive)
N/C(=N\NC(=O)c1sccc1OCc1ccc(Cl)cc1Cl)c1ccccn1 | > 26 µM (inactive)
Cc1[nH]n(-c2ccccc2)c(=O)c1/C=N/Nc1nncc(-c2ccccc2)n1 | > 26 µM (inactive)
CCCCn1c(/C=N/Nc2nc3ccccc3[nH]2)nc2ccccc21 | > 26 µM (inactive)
Cc1[nH]n(C2=NCCS2)c(=O)c1N=Nc1cccc(C(F)(F)F)c1 | > 26 µM (inactive)
CC1=NNC(=O)/C1=C\c1cn(-c2ccccc2)nc1-c1ccccc1 | > 26 µM (inactive)
NC(N)=N/N=C/c1ccc(N(c2ccccc2)c2ccccc2)cc1 | > 26 µM (inactive)
COc1ccccc1NC1=C(N2CCCCC2)C(=O)c2ccccc2C1=O | > 26 µM (inactive)
Cc1cccc2c(C(=O)N3CCN(c4ccccn4)CC3)cc(-c3cccc(Br)c3)nc12 | > 26 µM (inactive)
CCCCCCOC(=O)C[N+](C)(C)CCOC1CC2CCC1(C)C2(C)C (centres undefined) | > 26 µM (inactive)
COc1ccc(Nc2nc(N3CCCCC3)c3ccccc3n2)cc1 | 21.1 µM
COc1ccc(/C=C/c2nc3ccccc3n2C)cc1 | > 26 µM (inactive)
Oc1ccc(Br)cc1CNc1cccc2cccnc12 | > 26 µM (inactive)
Cc1ccc2ccc3ccc(C)nc3c2n1 | > 26 µM (inactive)
